Experimental data from patent US5393785A, “Therapeutic antiestrogens” (Endorecherche, Inc., priority 1992, dated 1995).

What was measured:
advanced breast cancer = conditions: cited from earlier work
[1] = system: rat uterine cytosol estrogen receptor; experiment: competition binding on rat uterine cytosol estrogen receptor with [3H]estradiol; conditions: incubation at 25° C. for 3 hours; [3H]estradiol competition
Procedure: FIG. 1 illustrates a competition binding assay of the affinity of estradiol, diethylstilbestrol, ICI 164384 (Wakeling A. E. and Bowler J., 1987; J. Endocr. 112, R7-R10) and EM-142 (an antiestrogen in accordance with the invention synthesized in example 1, herein) for the rat uterine cytosol receptor (Asselin et al., 1978; J. Steroid Biochem. 9:1079-1082).
EM-142 from example 1 was tested by competition binding on the rat uterine cytosol estrogen receptor with [^3 H]estradiol according to Asselin et al. (1976) procedure. […] (Incubation was performed at 25° C. for 3 hours).

[2] = system: estradiol-induced stimulation of uterine weight; experiment: inhibition of estradiol-induced stimulation of uterine weight in ovariectomized mice; type: in vivo, Balb/c mice
Procedure: FIG. 2 illustrates the effect of the indicated doses of EM-142 injected twice daily (b.i.d.) on uterine weight (mg) in adult female ovariectomized Balb/C mice treated for 4.5 days in the presence or absence of simultaneous treatment with 17β-estradiot (0.01 μg, b.i.d.). […] EM-142, and/or estradiol contained in ethanol were injected subcutaneously in the appropriate groups in a solution of 0.9% (w/v) sodium chloride and 1% (w/v) gelatin at different concentrations in 0.2 ml for EM-142, twice daily, starting on the day of ovariectomy for a total of 9 injections. Estradiol was injected at the dose of 0.01 μg in 0.2 ml, twice daily, starting on the morning after ovariectomy for a total of 8 injections. After sacrifice, the uteri were rapidly removed, freed from fat and connective tissue and weighted. Results shown in FIG. 2 are the means ± SEM of groups of 9-10 mice.

In the case of `CC/C(=C(\c1ccccc1)c1ccc(OCCN(C)C)cc1)c1ccccc1` [Tamoxifen], the “women patients treated with remission of advanced breast cancer” value (advanced breast cancer) is listed as “about 30%”.

In the case of `CCCCN(C)C(=O)CCCCCCCCCCC(=C(CC)c1ccc(O)cc1)c1ccc(O)cc1` [EM-142, N-butyl,N-methyl-12,13-Bis (4-hydroxyphenyl)-12-pentadecenoic amide], the “binding potency compared with ICI 164384” value [1] was “more potent than the antiestrogen ICI 164384”, the “binding potency relative to 17β-estradiol (times less potent)” value [1] was 3 times and the “effect on E2-induced uterine growth at 0.3 μg” value ([2]; 0.3 μg s.c. twice daily, 9 injections, estradiol 0.01 μg b.i.d.) was “significant inhibitory effect”. For the same molecule, the “effect on estrogenic action at 20 μg” value ([2]; 20 μg s.c. twice daily, 9 injections, estradiol 0.01 μg b.i.d.) was “complete reversal of estrogenic action”, the “estrogenic (agonistic) effect on uterine weight” value ([2]; EM-142 in absence of estradiol, s.c. twice daily) was “no estrogenic effect on uterine weight” and the “dose giving half-maximal inhibitory effect on E2-induced uterine growth” value ([2]; s.c. twice daily, 9 injections, estradiol 0.01 μg b.i.d.) was “approximately 3 μg”.
